Results: patent US12295396B2, “Antagonists of T2R54 and compositions and uses thereof” (Firmenich Incorporated, priority 2018, dated 2025)
Like-named read-outs stand apart in the source and are kept apart here.

Target: T1, hT2R54 (Homo sapiens, UniProt P59534)
T1 construct: expressed in transfected cells; it overexpresses a promiscuous G protein
T1 sequence (P59534 1-338): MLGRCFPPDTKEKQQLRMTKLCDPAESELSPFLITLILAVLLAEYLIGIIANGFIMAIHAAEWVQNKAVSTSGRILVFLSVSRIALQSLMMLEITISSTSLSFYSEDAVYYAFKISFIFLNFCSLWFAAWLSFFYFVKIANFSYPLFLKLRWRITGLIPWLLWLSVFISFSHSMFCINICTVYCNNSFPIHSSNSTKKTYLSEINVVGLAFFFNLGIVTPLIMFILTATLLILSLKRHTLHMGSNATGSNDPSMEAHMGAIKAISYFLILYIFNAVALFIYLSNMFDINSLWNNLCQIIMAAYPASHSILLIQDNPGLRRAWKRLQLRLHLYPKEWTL
Experiment: Cell-based assay for measuring hT2R54 inhibition (FLIPR calcium, Fluo4AM, acetaminophen as bitter agonist)
Settings: read-out: hT2R54 IC50
How it was run: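 The readout was FLIPR calcium (Fluo4AM, 10 s baseline, 3 min post-addition) in cells stably carrying hT2R54 plus a promiscuous G protein, with host cells lacking hT2R54 as counter-control. Acetaminophen concentration series were tested with and without set test-compound levels. Half-maximal block of the agonist response gave the EC50/IC50.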

[1] = Table 2, cells stably expressing hT2R54 and a promiscuous G protein

IC50 (Table 8)	IC50 [1]	Compound	other results
682 nM		CC(=O)c1cc2c(cc1NC(=O)CC1CCN(C(=O)C3CC3)C1)OCO2 (centres unmarked) [compound 265]	
506 nM		CC(=O)c1cc2c(cc1NC(=O)CC1CCN(C(=O)C3CCCC3)C1)OCO2 (centres unmarked) [compound 266]	
2250 nM		CC(=O)c1cc2c(cc1NC(=O)CC1CCN(C(=O)C3CCCCC3)C1)OCO2 (centres unmarked) [compound 267]	
117 nM		CCOC(=O)N1CCC(CC(=O)Nc2cc3c(cc2C(C)=O)OCO3)C1 (centres unmarked) [compound 268]	
103 nM		CCCOC(=O)N1CCC(CC(=O)Nc2cc3c(cc2C(C)=O)OCO3)C1 (centres unmarked) [compound 269]	
	38 nM	COCc1ccc(C(=O)N2CCN(CC(=O)Nc3cc4c(cc3C(C)=O)OCO4)CC2)cc1 [compound 282]	
	125 nM	COCc1cccc(C(=O)N2CCN(CC(=O)Nc3cc4c(cc3C(C)=O)OCO4)CC2)n1 [compound 283]	
	30 nM	CC(=O)c1cc2c(cc1NC(=O)CN1CCN(C(=O)c3csnn3)CC1)OCO2 [compound 284]	
	34 nM	CC(=O)c1cc2c(cc1NC(=O)CN1CCN(C(=O)c3cscn3)CC1)OCO2 [compound 285]	
	108 nM	CC(=O)c1cc2c(cc1NC(=O)CN1CCN(C(=O)c3cocn3)CC1)OCO2 [compound 286]	
	230 nM	CC(=O)c1cc2c(cc1NC(=O)CN1CCN(C(=O)c3ccc(CO)o3)CC1)OCO2 [compound 287]	
	65 nM	COCc1ccc(C(=O)N2CCN(CC(=O)Nc3cc4c(cc3C(C)=O)OCO4)CC2)o1 [compound 288]	
	21 nM	COCc1ccc(C(=O)N2CCN(CC(=O)Nc3cc4c(cc3C(C)=O)OCO4)CC2)s1 [compound 289]	
	10 nM	CC(=O)c1cc2c(cc1NC(=O)CN1CCN(C(=O)c3cc(C)c(C)o3)CC1)OCO2 [compound 290]	
	49 nM	CCc1oc(C(=O)N2CCN(CC(=O)Nc3cc4c(cc3C(C)=O)OCO4)CC2)cc1COC [compound 291]	
	6 nM	CC(=O)c1cc2c(cc1NC(=O)CN1CCN(C(=O)c3ccc(Cn4cccn4)o3)CC1)OCO2 [compound 292]	
	8 nM	CC(=O)c1cc2c(cc1NC(=O)CN1CCN(C(=O)c3cc(C)no3)CC1)OCO2 [compound 293]	
	70 nM	COCc1cc(C(=O)N2CCN(CC(=O)Nc3cc4c(cc3C(C)=O)OCO4)CC2)no1 [compound 294]	
	20 nM	COCc1nc(C(=O)N2CCN(CC(=O)Nc3cc4c(cc3C(C)=O)OCO4)CC2)cs1 [compound 295]	
	53 nM	COCc1nc(C(=O)N2CCN(CC(=O)Nc3cc4c(cc3C(C)=O)OCO4)CC2)co1 [compound 296]	
	23 nM	CC(=O)c1cc2c(cc1NC(=O)CN1CCN(C(=O)c3coc(C)n3)CC1)OCO2 [compound 297]	
	91 nM	CC(=O)c1cc2c(cc1NC(=O)CN1CCN(C(=O)c3conc3C)CC1)OCO2 [compound 298]	
	58 nM	CC(=O)c1cc2c(cc1NC(=O)CN1CCN(C(=O)c3ncoc3C)CC1)OCO2 [compound 299]	
	40 nM	CC(=O)c1cc2c(cc1NC(=O)CN1CCN(C(=O)c3cc(C)on3)CC1)OCO2 [compound 300]	
	20 nM	CC(=O)c1cc2c(cc1NC(=O)CN1CCN(C(=O)c3ncc[nH]3)CC1)OCO2 [compound 301]	
	800 nM	CC(=O)c1cc2c(cc1NC(=O)CN1CCN(C(=O)c3cn[nH]c3)CC1)OCO2 [compound 302]	
	60 nM	CC(=O)c1cc2c(cc1NC(=O)CN1CCN(C(=O)c3c[nH]nn3)CC1)OCO2 [compound 303]	
	80 nM	CC(=O)c1cc2c(cc1NC(=O)CN1CCN(C(=O)c3ncn[nH]3)CC1)OCO2 [compound 304]	
	31 nM	CC(=O)c1cc2c(cc1NC(=O)CN1CCN(C(=O)c3nccn3C)CC1)OCO2 [compound 305]	
	77 nM	COc1cc2c(cc1NC(=O)CN1CCN(C(=O)c3nc(C)c[nH]3)CC1)OCO2 [compound 306]	

More lines, now with the values behind:

Compound	IC50 (Table 8)	IC50 [1]	other results
CCOC(=O)N1CCOC(CC(=O)Nc2cc3c(cc2C(C)=O)OCO3)C1 (centres unmarked) [compound 230]	160 nM		
CC(=O)c1cc2c(cc1NC(=O)CC1CN(C(=O)c3ccco3)CCO1)OCO2 (centres unmarked) [compound 231]	240 nM		
CC(=O)c1cc2c(cc1NC(=O)CC1CCN(C(C)=O)CC1)OCO2 [compound 232]	> 1000 nM		
CCC(=O)N1CCC(CC(=O)Nc2cc3c(cc2C(C)=O)OCO3)CC1 [compound 233]	86 nM		
CCCC(=O)N1CCC(CC(=O)Nc2cc3c(cc2C(C)=O)OCO3)CC1 [compound 234]	> 1000 nM		
CCCCC(=O)N1CCC(CC(=O)Nc2cc3c(cc2C(C)=O)OCO3)CC1 [compound 235]	77 nM		
CC(=O)c1cc2c(cc1NC(=O)CC1CCN(C(=O)C(C)C)CC1)OCO2 [compound 236]	> 1000 nM		
CC(=O)c1cc2c(cc1NC(=O)CC1CCN(C(=O)C(C)(C)C)CC1)OCO2 [compound 237]	190 nM		
CC(=O)c1cc2c(cc1NC(=O)CC1CCN(C(=O)C3CC3)CC1)OCO2 [compound 238]	470 nM		
CC(=O)c1cc2c(cc1NC(=O)CC1CCN(C(=O)C3CCCCC3)CC1)OCO2 [compound 239]	> 1000 nM		
CCOC(=O)N1CCC(CC(=O)Nc2cc3c(cc2C(C)=O)OCO3)CC1 [compound 240]	34 nM		
CCCOC(=O)N1CCC(CC(=O)Nc2cc3c(cc2C(C)=O)OCO3)CC1 [compound 241]	72 nM		
CC(=O)c1cc2c(cc1NC(=O)CC1CCN(C(=O)C3CCCO3)CC1)OCO2 (centres unmarked) [compound 242]	68 nM		
CC(=O)c1cc2c(cc1NC(=O)CC1CCN(C(=O)C3CCCCO3)CC1)OCO2 (centres unmarked) [compound 243]	96 nM		
CC(=O)c1cc2c(cc1NC(=O)CC1CCN(C(=O)c3cccnc3)CC1)OCO2 [compound 244]	51 nM		
COCc1cccc(C(=O)N2CCC(CC(=O)Nc3cc4c(cc3C(C)=O)OCO4)CC2)c1 [compound 245]	44 nM		
CC(=O)c1cc2c(cc1NC(=O)CC1CCN(C(=O)c3ccon3)CC1)OCO2 [compound 246]	2310 nM		
CC(=O)c1cc2c(cc1NC(=O)CC1CCN(C(=O)Cc3ccccc3)CC1)OCO2 [compound 247]	490 nM		
CC(=O)c1cc2c(cc1NC(=O)CC1CCN(C(=O)Cc3ccccc3F)CC1)OCO2 [compound 248]	420 nM		
CC(=O)c1cc2c(cc1NC(=O)CC1CCN(C(=O)Cc3cccc(F)c3)CC1)OCO2 [compound 249]	2540 nM		
CC(=O)c1cc2c(cc1NC(=O)CC1CCN(C(=O)Cc3cccnc3)CC1)OCO2 [compound 250]	760 nM		
CC(=O)c1cc2c(cc1NC(=O)CC1CCN(C(=O)Cc3ccncc3)CC1)OCO2 [compound 251]	580 nM		
CC(=O)c1cc2c(cc1NC(=O)CC1CCN(C(=O)Cc3ccccc3O)CC1)OCO2 [compound 252]	1090 nM		
CC(=O)c1cc2c(cc1NC(=O)CC1CCN(C(=O)Cc3cccc(O)c3)CC1)OCO2 [compound 253]	750 nM		

Compound	IC50 (Table 8)	IC50 [1]	other results
CC(=O)c1cc2c(cc1NC(=O)CC1CCN(C(=O)Cc3ccc(O)cc3)CC1)OCO2 [compound 254]	320 nM		
COc1ccccc1CC(=O)N1CCC(CC(=O)Nc2cc3c(cc2C(C)=O)OCO3)CC1 [compound 255]	1300 nM		
COc1cccc(CC(=O)N2CCC(CC(=O)Nc3cc4c(cc3C(C)=O)OCO4)CC2)c1 [compound 256]	380 nM		
COc1ccc(CC(=O)N2CCC(CC(=O)Nc3cc4c(cc3C(C)=O)OCO4)CC2)cc1 [compound 257]	1570 nM		
CC(=O)c1cc2c(cc1NC(=O)CC1CCN(C(C)=O)C1)OCO2 (centres unmarked) [compound 258]	928 nM		
CCC(=O)N1CCC(CC(=O)Nc2cc3c(cc2C(C)=O)OCO3)C1 (centres unmarked) [compound 259]	2600 nM		
CCCC(=O)N1CCC(CC(=O)Nc2cc3c(cc2C(C)=O)OCO3)C1 (centres unmarked) [compound 260]	844 nM		
CC(=O)c1cc2c(cc1NC(=O)CC1CCN(C(=O)C(C)C)C1)OCO2 (centres unmarked) [compound 261]	958 nM		
CC(=O)c1cc2c(cc1NC(=O)CC1CCN(C(=O)C(C)(C)C)C1)OCO2 (centres unmarked) [compound 262]	290 nM		
CC(=O)c1cc2c(cc1NC(=O)CC1CCN(C(=O)CC(C)C)C1)OCO2 (centres unmarked) [compound 263]	374 nM		
CC(=O)c1cc2c(cc1NC(=O)CC1CCN(C(=O)CC(C)(C)C)C1)OCO2 (centres unmarked) [compound 264]	381 nM		
CC(=O)c1cc2c(cc1NC(=O)CC1CCOCC1)OCO2 [compound 270, N-(6-Acetylbenzo[d][1,3]dioxol-5-yl)-2-(tetrahydro-2H-pyran-4-yl)acetamide]			IC50 (Table 9): 561 nM
CC(=O)c1cc2c(cc1NC(=O)CC1CCCCO1)OCO2 (centres unmarked) [compound 271]			IC50 (Table 9): 152 nM
CC(=O)c1cc2c(cc1NC(=O)CC1CCOC1)OCO2 (centres unmarked) [compound 272]			IC50 (Table 9): 1390 nM
CC(=O)c1cc2c(cc1NC(=O)Cc1cccnc1)OCO2 [compound 273]			IC50 (Table 9): 454 nM
CC(=O)c1cc2c(cc1NC(=O)Cc1ccc(O)cc1)OCO2 [compound 274]			IC50 (Table 9): 554 nM
CC(=O)c1cc2c(cc1NC(=O)Cc1ccsc1)OCO2 [compound 275]			IC50 (Table 9): 704 nM
COc1ccccc1CC(=O)Nc1cc2c(cc1C(C)=O)OCO2 [compound 276]			IC50 (Table 9): 804 nM
CC(=O)c1cc2c(cc1NC(=O)Cc1ccccc1C)OCO2 [compound 277]			IC50 (Table 9): 740 nM
CC(=O)c1cc2c(cc1NC(=O)CCc1ccccc1)OCO2 [compound 278]			IC50 (Table 9): 1220 nM
COc1ccc(OC)c(CC(=O)Nc2cc3c(cc2C(C)=O)OCO3)c1 [compound 279]			IC50 (Table 9): 1470 nM
CC(=O)c1cc2c(cc1NC(=O)Cc1c(C)nn(C)c1C)OCO2 [compound 280]			IC50 (Table 9): 1720 nM
COc1cccc(CC(=O)Nc2cc3c(cc2C(C)=O)OCO3)c1 [compound 281]			IC50 (Table 9): 1810 nM
